In brackets after ≈: the same amount, converted by molar mass. Marks after values point to notes of the source that are not given here.

The nature of data set [1]: Oral bioavailability of ibuprofen crushed tablets in control and vagal-suppressed (Pain Model) rats. The conditions noted are these: Pain Model (vagal-suppressed, propantheline) rats, 20 mg/kg oral. Format: in vivo, Sprague-Dawley rats. An excerpt: Delayed absorption caused by vagal suppression that has previously been reported in the literature (e.g., Jamali & Axelson, 1997) was used to test the absorption rates of new meloxicam formulations.
The animal models are adult male Sprague-Dawley rats with body weight of 250-300 g, and which were cared for in accordance with the principles and guidelines of the Canadian Council of Animal Care. All rats were catheterized in the right jugular vein for sample collection.
An animal model having suppressed vagal properties were produced by administering (intraperitoneal injection) to the rats two 20 mg/kg doses of propantheline (test, n=6), an anticholinergic agent with known vagal suppressive properties, the first dose at 2 hours prior to administration of an NSAID, and the second at 1 hour prior.
The tablets were crushed gently and small pieces were administered into the stomach via a plastic tube followed by 0.5 mL tap water. Animals were fasted after the first dose of propantheline until 4 hours post-meloxicam dose. They had free access to water.

For data set [2] the following is noted: 200 mg and 600 mg doses, dental surgery; cited from earlier work.
Data set [3] can be described thus: Solubility of meloxicam in simulated gastric fluid pH 1.2. The format is physicochemical. The settings on record: for solubility at 72 h: simulated gastric fluid, pH 1.2, simulated gastric fluid, thermodynamic from solid. The procedure:
Excess of different compositions and pure meloxicam powder were transferred into test tubes.
10 ml of USP simulated gastric fluid, pH 1.2 (SGF) was added.
Samples were shaken for 72 h at room temperature.
Filtered solutions were analyzed for meloxicam.

The conditions of data set [4]: pH 2-4; cited from earlier work.

Regarding `CC(C)Cc1ccc(C(C)C(=O)O)cc1` (racemic) [ibuprofen], in data set [1], the “AUC (0-8)” value amounted to 81.8 μg/h/mL^−1, the Cmax is 13.8* μg/mL and the Tmax is 45 min. The “delay in the mean time to peak concentration caused by surgery” value in data set [2] is listed as “two”.

With `Cc1cnc(NC(=O)C2=C(O)c3ccccc3S(=O)(=O)N2C)s1` [meloxicam], the “solubility in simulated gastric fluid when loaded on Neusilin® and mixed with Gelucire® 44/14” value in data set [3] (pH 1.2, FIG. 7) is reported as “substantially increased”. The solubility at 72 h in data set [3] (pH 1.2, combination of Gelucire® and Neusilin®) is 11500 µg/mL; in data set [3] (pH 1.2, meloxicam alone), 7 µg/mL (≈ 19.9 µM); in data set [3] (pH 1.2, with Gelucire® alone), 10 µg/mL (≈ 28.5 µM); in data set [3] (pH 1.2, with the metal silicate alone), 23 to 41 µg/mL (≈ 65.5 to 117 µM). For the same compound, the “minimum solubility in buffered aqueous systems” value in data set [4] was “less than 0.5 µg/ml”.

As usually defined, the Tmax is the time at which the peak concentration occurs. By solubility is commonly meant the concentration that dissolves in the medium under given conditions.

(Values after US20080255104A1, “Nsaid Compositions” (EQUITECH CORPORATION, priority 2004, published 2008).)
